Data reported in patent EP1137645B1, “ALPHA-METHYLBENZYL-CONTAINING THIOUREA INHIBITORS OF HERPES VIRUSES CONTAINING A […] GROUP” (Wyeth, priority 1998, dated 2000).
Converted amounts (≈) assume the structure as drawn. Where two headings read alike, the source gives them in different places.

Key:
[1] = system: HCMV recombinant mutant virus whose genome contains the prokaryotic beta-glucuronidase gene; experiment: microbe, parasite or virus in culture; assay type: cell-based, human cytomegalovirus; conditions: Human betaherpesvirus 5, Fibroblast
Summary of the method: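 Human foreskin fibroblasts infected with HCMV recombinant carrying beta-glucuronidase under a viral promoter (e.g. RV145) in presence of compound. At 96 h post-infection, lysates assayed for beta-glucuronidase by colorimetric or fluorogenic substrate as replication readout; IC50 estimated from varying compound amounts.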

HSV- I = experiment: HSV antiviral (ELISA) assay; assay type: cell-based; conditions: read-out: IC50 (ug/ml) HSV
Summary of the method: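 Vero cells in DMEM with 2% FBS treated with compound 30 min before HSV-1 infection (MOI 0.006), then incubated ~24 h at 37°C. Viral replication measured by ELISA against glycoprotein D with β-galactosidase-linked secondary and fluorogenic substrate (ex 365/em 450 nm); IC50 relative to untreated fluorescence.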

VZV strain Ellen = experiment: VZV antiviral (ELISA) assay; assay type: cell-based
Summary of the method: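 HFF cells infected with VZV Ellen at multiplicity below 0.1 overnight, then mixed infected/uninfected cells seeded with compound in DMEM/2% FBS and incubated three days at 37°C, 5% CO2.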

[2] = read-out: IC50 ug/ml HCMV, HCMV, human foreskin fibroblasts
[3] = Human alphaherpesvirus 3, HFF, read-out: IC50 (ug/ml) VZV, VZV strain Ellen, HFF cells, ELISA
[4] = Human alphaherpesvirus 3, VZV strain Ellen, HFF cells, ELISA, read-out: IC50 (ug/ml) VZV
[5] = Human alphaherpesvirus 3, HFF, read-out: % inhibition 10 ug/ml VZV
[6] = Human alphaherpesvirus 3, HFF, read-out: IC50 (ug/ml) VZV
[7] = Human alphaherpesvirus 3, read-out: % inhibition 10 ug/ml VZV, 10 ug/ml, VZV strain Ellen, HFF cells, ELISA

SMILES	IC50 [1, 2]	IC50 (HSV- I; Vero)	IC50 (VZV strain Ellen; [3])	IC50 ([1]; read-out: IC50 ug/ml HCMV)	IC50 (HSV- I; HSV- I, Vero cells, ELISA)	IC50 (VZV strain Ellen; [4])	inhibition at 10 µg/mL (VZV strain Ellen; [5])	IC50 (VZV strain Ellen; [6])	inhibition at 10 µg/mL (VZV strain Ellen; [7])
O=C(Nc1ccc(NC(=S)Nc2cc(Br)cc(C(F)(F)F)c2)cc1)c1ccccc1F [Example 531, N-{4-[3-(3-Bromo-5-trifluoromethyl-phenyl)-thioureido]-phenyl}-2-fluoro-benzamide]	5 µg/mL (≈ 9.76 µM)	> 10 µg/mL	6 µg/mL (≈ 11.7 µM)	–	–	–	–	–	–
O=C(Nc1ccc(NC(=S)NCc2ccc3c(c2)OCO3)cc1)c1ccccc1F [Example 540, N-[4-(3-Benzo[1,3]dioxol-5-ylmethyl-thioureido)-phenyl]-2-fluoro-benzamide]	–	–	–	> 0.5 µg/mL	> 10 µg/mL	> 10 µg/mL	–	–	–
COc1cc(OC)c(NC(=S)Nc2ccc(NC(=O)c3ccccc3[S+](C)[O-])cc2)cc1Cl (stereo not shown) [Example 220, N-{4-[3-(5-Chloro-2,4-dimethoxy-phenyl)-thioureido]-phenyl}-2-methane-sulfinyl-benzamide]	> 10 µg/mL	> 10 µg/mL	> 10 µg/mL	–	–	–	35%	–	–
O=C(CN1CCOCC1)Nc1ccc(NC(=S)Nc2ccc(NC(=O)c3ccccc3F)cc2)cc1Cl [Example 367, N-(4-{3-[3-Chloro-4-(2-morpholin-4-yl-acetylamino)-phenyl]-thioureido}-phenyl)-2-fluoro-benzamide]	> 10 µg/mL	–	–	–	> 10 µg/mL	–	20%	> 10 µg/mL	–
O=C(Nc1ccc(NC(=S)NCCc2ccc(F)cc2)cc1)c1ccccc1F [Example 553, 2-Fluoro-N-(4-{3-[2-(4-fluoro-phenyl)-ethyl]-thioureido}-phenyl)-benzamide]	–	–	–	> 0.5 µg/mL	> 10 µg/mL	7 µg/mL (≈ 17 µM)	–	–	–
COc1cccc(C(C)NC(=S)Nc2ccc(NC(=O)c3ccccc3F)cc2)c1 (stereo not shown) [Example 789, 2-Fluoro-N-(4-{3-[1-(3-methoxy-phenyl)-ethyl]-thioureido}-phenyl)-benzamide]	> 2.2 µg/mL	> 10 µg/mL	1.5 µg/mL (≈ 3.54 µM)	–	–	–	–	–	–
COc1cc(OC)c(NC(=S)Nc2ccc(NC(=O)c3ccccc3Br)cc2)cc1Cl [Example 142, 2-Bromo-N-{4-[3-(5-chloro-2,4-dimethoxy-phenyl)-thioureido]-phenyl}-benzamide]	–	–	–	10 µg/mL (≈ 19.2 µM)	0.4 µg/mL (≈ 0.768 µM)	> 15 µg/mL	–	–	51%
COc1cc(C)c(Cl)cc1NC(=S)Nc1ccc(NC(=O)c2ccccc2C)cc1 [Example 850, N-{4-[3-(5-Chloro-2-methoxy-4-methyl-phenyl)-thioureido]-phenyl}-2-methyl-benzamide]	2 µg/mL (≈ 4.55 µM)	–	–	–	0.09 µg/mL (≈ 0.205 µM)	–	28%	5 µg/mL (≈ 11.4 µM)	–
O=C(O)c1cccc(NC(=S)Nc2ccc(NC(=O)c3ccccc3F)cc2)c1 [Example 963, 3-{3-[4-(2-Fluoro-benzoylamino)-phenyl]-thioureido}-benzoic acid]	–	–	–	> 10 µg/mL	> 10 µg/mL	> 10 µg/mL	–	–	30%
COc1cc(OC)c(NC(=S)Nc2ccc(NC(=O)c3ccccc3CO)cc2)cc1Cl [Example 185, N-{4-[3-(5-Chloro-2,4-dimethoxy-phenyl)-thioureido]-phenyl}-2-hydroxy-methyl-benzamide]	10 µg/mL (≈ 21.2 µM)	–	–	–	3 µg/mL (≈ 6.36 µM)	–	32%	> 10 µg/mL	–
COCCOc1ccc(NC(=S)Nc2ccc(NC(=O)c3ccccc3F)cc2)cc1Cl [Example 996, N-(4-{3-[3-Chloro-4-(2-methoxy-ethoxy)-phenyl]-thioureido}-phenyl)-2-fluoro-benzamide]	> 10 µg/mL	> 10 µg/mL	10 µg/mL (≈ 21.1 µM)	–	–	–	–	–	–
COc1cc(OC)c(NC(=S)Nc2ccc(NC(=O)c3ccc4ccccc4c3)cc2)cc1Cl [Example 156, Naphthalene-2-carboxylic acid {4-[3-(5-chloro-2,4-dimethoxy-phenyl)-thioureido]-phenyl}-amide]	10 µg/mL (≈ 20.3 µM)	–	–	–	2 µg/mL (≈ 4.07 µM)	–	17%	> 10 µg/mL	–
Nc1nccc(-c2ccc(NC(=S)Nc3ccc(NC(=O)c4ccccc4F)cc3)cc2Cl)n1 [Example 502, N-(4-{3-[4-(2-Amino-pyrimidin-4-yl)-3-chloro-phenyl]-thioureido}-phenyl)-2-fluoro-benzamide]	1.8 µg/mL (≈ 3.65 µM)	–	–	–	> 10 µg/mL	–	13%	> 10 µg/mL	–
COc1cc(OC)c(NC(=S)Nc2ccc(NC(=O)c3cccc(NS(C)(=O)=O)c3)cc2)cc1Cl [Example 137, N-{4-[3-(5-Chloro-2,4-dimethoxy-phenyl)-thioureido]-phenyl}-3-methane-sulfony-amino-benzamide]	10 µg/mL (≈ 18.7 µM)	10 µg/mL (≈ 18.7 µM)	> 15 µg/mL	–	–	–	72%	–	–
Cc1ccc(NC(=S)Nc2ccc(NC(=O)c3ccccc3F)cc2)cc1C(F)(F)F [Example 1003, 2-Fluoro-N-{4-[3-(4-methyl-3-trifluoromethyl-phenyl)-thioureido]-phenyl}-benzamide]	–	–	–	> 10 µg/mL	> 10 µg/mL	> 10 µg/mL	–	–	–
CC(NC(=S)Nc1ccc(NC(=O)c2nccc3ccccc23)cc1)c1cc2ccccc2o1 (stereo not shown) [Example 977, Isoquinoline-1-carboxylic acid {4-[3-(1-benzofuran-2-yl-ethyl)-thioureido]-phenyl}-amide]	> 10 µg/mL	> 10 µg/mL	0.05 µg/mL (≈ 0.107 µM)	–	–	–	–	–	–
COc1ccc(C(C)NC(=S)Nc2ccc(NC(=O)c3ccccc3F)cc2)cc1Cl (stereo not shown) [Example 1000, N-(4-{3-[1-(3-Chloro-4-methoxy-phenyl)-ethyl]-thioureido}-phenyl)-2-fluoro-benzamide]	2 µg/mL (≈ 4.37 µM)	> 10 µg/mL	6 µg/mL (≈ 13.1 µM)	–	–	–	–	–	–
Cc1ccccc1C(=O)Nc1ccc(NC(=S)Nc2ccc(N(C)C3CCN(Cc4ccccc4)C3)c(Cl)c2)cc1 (stereo not shown) [Example 374, N-[4-(3-{4-[(1-Benzyl-pyrrolidin-3-yl)-methyl-amino]-3-chloro-phenyl}-thioureido)-phenyl]-2-methyl-benzamide]	3 µg/mL (≈ 5.14 µM)	–	–	–	3 µg/mL (≈ 5.14 µM)	–	70%	4 µg/mL (≈ 6.85 µM)	–
CC(NC(=S)Nc1ccc(NC(=O)c2ccccc2Cl)cc1)c1ccc(F)cc1 (stereo not shown) [Example 755, 2-Chloro-N-(4-{3-[1-(4-fluoro-phenyl)-ethyl]-thioureido}-phenyl)-benzamide]	> 10 µg/mL	> 10 µg/mL	7 µg/mL (≈ 16.4 µM)	–	–	–	–	–	–
C[C@H](NC(=S)Nc1ccc(NC(=O)c2ccccc2F)cc1)c1ccc(Cl)cc1 [Example 1015, N-(4-{3-[(1S)-1-(4-Chloro-phenyl)-ethyl]-thioureido}-phenyl)-2-fluoro-benzamide]	2.5 µg/mL (≈ 5.84 µM)	> 10 µg/mL	0.03 µg/mL (≈ 0.0701 µM)	–	–	–	–	–	–
COc1cc(OC)c(NC(=S)Nc2ccc(NC(=O)c3ccc(F)c(F)c3F)cc2)cc1Cl [Example 192, N-{4-[3-(5-Chloro-2,4-dimethoxy-phenyl)-thioureido]-phenyl}-2,3,4-trifluoro-benzamide]	> 10 µg/mL	–	–	–	0.5 µg/mL (≈ 1.01 µM)	–	14%	> 10 µg/mL	–
CSc1ccc(NC(=S)Nc2ccc(NC(=O)c3ccccc3F)cc2Cl)cc1Cl [Example 460, N-{3-Chloro-4-[3-(3-chloro-4-methylsulfanyl-phenyl)-thioureido]-phenyl}-2-fluoro-benzamide]	2 µg/mL (≈ 4.16 µM)	–	–	–	0.09 µg/mL (≈ 0.187 µM)	–	50%	> 10 µg/mL	–
CC(O)c1cccc(NC(=S)Nc2ccc(NC(=O)c3ccccc3F)cc2)c1 (stereo not shown) [Example 448, 2-Fluoro-N-(4-{3-[3-(1-hydroxy-ethyl)-phenyl]-thioureido}-phenyl)-benzamide]	–	–	–	9 µg/mL (≈ 22 µM)	> 10 µg/mL	> 10 µg/mL	–	–	0%
